Source: patent US20150352108A1, “AMINO-PYRIMIDINE COMPOUNDS AS INHIBITORS OF TBK1 AND/OR IKK EPSILON” (Alzheimer's Institute of America, priority 2009, published 2015)
pIC50: −log10 of the molar value.

Tests used:
[1] = system: Poly(I:C)-induced innate/adaptive immune and IFNα/β-regulated genes, HFLS-RA cells; assay: Genes modulated by IKKε/TBK1 inhibition in HFLS-RA cells (qRT-PCR arrays, Poly(I:C)); type: cell-based, human; details: 500 nM pre-treatment
Method: IKKε and TBK1 play important roles in modulating several innate/adaptive immune and interferon-regulated genes in response to bacterial and viral infections. To identify genes that are under the control of IKKε and TBK1 kinase activity HFLS-RA cells (Cell Applications, Inc., San Diego, Calif.) were pretreated with a compound according to Formula I (Example Compound 5) (0.5 uM), and then treated with the TLR3 agonist Poly(I:C). A focused RT-PCR array containing either 84 innate/adaptive immune-regulated or 84 IFNα/β-regulated genes were probed by qRT-PCR using mRNA isolated from the treated cells, as well as from untreated control cells, according to the following protocol.
HFLS cells isolated from patients with RA were obtained from Cell Applications, Inc. (HFLS-RA, Cell Applications, Inc., San Diego, Calif.). Cells were seeded in synoviocyte growth medium (Cell Applications, Inc., San Diego, Calif.) and allowed to grow overnight. The following day, media was replaced and cells were treated with 500 nM of Example Compound 5 (0.1% final DMSO concentration). Two hours later, cells were induced with 50 µg/mL Poly(I:C) (Sigma-Aldrich, St. Louis, Mo.). […] RNA was quantitated using Quant-iT™ RiboGreen® RNA Assay Kit (Invitrogen, Inc., Carlsbad, Calif.). […]

[2] = system: TBK1-mediated phosphorylation of IRF7; assay: In-situ TBK1-mediated phosphorylation of IRF7 in HEK293T cells transfected with IRF7 and TBK1 (Western blot); type: cell-based
Method: HEK293T cells were cotransfected in a 10-cm dish with IRF3 and IKKε expression plasmids using Lipofectamine 2000 (Invitrogen, Carlsbad, Calif.). The following day, cells were replated at 20,000 per well in 96-well plates and treated with test compounds (compounds according to Formula I) for 20 hours. Cell lysates were prepared and analyzed using an ELISA for phospho-Ser396 (anti-IRF3 capture antibody, Santa Cruz Biotechnology, Inc., Santa Cruz, Calif.; anti-p-Ser396 IRF3 detection antibody, Cell Signaling, Danvers, Mass.). pIRF3 levels in compound treated cells were normalized to DMSO treated cells (no compound). Cell viability was assayed in a parallel set of plates to monitor cytotoxic effects of the test compounds (CellTiter-Glo, Promega, Inc., Madison, Wis.). TBK1 activity was tested by Western blotting using a phospho-specific IRF7 antibody. Similar to above, HEK293T cells were transfected with IRF7 and TBK1 expression plasmids. Cells were seeded in 12-well plates at 150,000 per well and treated overnight with test compounds. Protein lysates were prepared and processed for Western blotting followed by detection using a phosphor-Ser477/Ser479 IRF7 antibody (BD Biosciences, San Jose, Calif.)

TBK1 = target: T1, TBK1 (Homo sapiens, UniProt Q9UHD2); assay: In-vitro TBK1 kinase assay ([γ33]ATP filter-plate); type: biochemical; details: text bins; read-out: IC50 for inhibition of the kinase activity of TBK1
T1 construct: His-tag; made in house; host or cells: Sf9 insect cells
T1 sequence (Q9UHD2 1-729): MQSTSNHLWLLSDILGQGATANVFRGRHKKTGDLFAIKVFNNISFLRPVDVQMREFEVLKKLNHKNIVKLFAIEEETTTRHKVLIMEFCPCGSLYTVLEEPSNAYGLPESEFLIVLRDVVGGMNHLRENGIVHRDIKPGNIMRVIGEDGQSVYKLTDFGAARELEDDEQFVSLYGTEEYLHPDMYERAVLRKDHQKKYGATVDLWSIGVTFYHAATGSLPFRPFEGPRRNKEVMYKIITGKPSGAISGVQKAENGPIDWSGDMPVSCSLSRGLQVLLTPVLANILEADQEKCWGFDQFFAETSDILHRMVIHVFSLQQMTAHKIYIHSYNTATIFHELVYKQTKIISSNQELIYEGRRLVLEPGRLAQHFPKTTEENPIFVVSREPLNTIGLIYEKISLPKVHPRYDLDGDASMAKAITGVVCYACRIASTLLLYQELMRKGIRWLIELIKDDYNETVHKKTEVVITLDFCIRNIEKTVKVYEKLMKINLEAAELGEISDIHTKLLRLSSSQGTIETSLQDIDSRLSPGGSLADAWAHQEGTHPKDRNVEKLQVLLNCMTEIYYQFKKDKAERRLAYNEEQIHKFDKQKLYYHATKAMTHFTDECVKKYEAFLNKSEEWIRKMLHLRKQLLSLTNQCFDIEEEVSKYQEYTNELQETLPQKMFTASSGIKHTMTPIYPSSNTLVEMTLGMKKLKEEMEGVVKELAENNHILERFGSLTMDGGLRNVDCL
In short: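 His-tagged IKKε and TBK1 from Sf9 cells were assayed with myelin basic protein or casein and [γ33]ATP at 2×Km ATP (32 μM for IKKε, 60 μM for TBK1). Enzyme was 0.1 or 0.015 μg/ml for IKKε and 0.1 or 0.02 μg/ml for TBK1 (normal/sensitized). Reactions ran 30-45 min, were filter-captured, scintillation-counted, and normalized to DMSO after background subtraction.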

For `N#Cc1cc(-c2ccnc(Nc3ccc(N4CCOCC4)cc3)n2)ccc1OC1CCOCC1` [Example 5, 5-(2-{[4-(Morpholin-4-yl)phenyl]amino}pyrimidin-4-yl)-2-(tetrahydro-2H-pyran-4-yloxy)benzaonitrile], the “induction of genes normally induced by Poly(I:C) treatment” value [1] was “potently inhibited”, the “inhibition of TBK1-mediated phosphorylation of IRF7” value [2] was “inhibit” and the pIC50 (TBK1) was greater than 8.00.
